Test results: patent publication US20120122832A1, “METHOD OF MAKING CEFQUINOME PARTICLES” (priority 2009, published 2012)
Counter-ions that a name gives are not always drawn.

Columns and labels:
[1] = Particle size distribution (PSD) of precipitated cefquinome sulfate particles by laser light scattering; format: physicochemical
[2] = Particle size distribution of ethyl oleate formulations, Malvern Master Sizer with Hydro 2000G cell, Frauenhofer method; format: physicochemical; conditions: Table 1, Malvern Master Sizer
Method: The particle size was determined with a Malvern Master Sizer GMAL 01 with the Hydro 2000G measuring cell according to Frauenhofer method.

[3] = 1 minute stirring only in the measurement equipment
[4] = 10 minutes stirring + 6 minutes of ultrasound
[5] = 10 minutes stirring only in the measurement equipment

PSD D(50) [1, 3] | PSD D(100) [1, 3] | PSD DE(90) [1, 3] | PSD D(50) [1, 4] | PSD D(100) [1, 4] | PSD DE(90) [1, 4] | PSD D(50) [1, 5] | PSD D(100) [1, 5] | PSD DE(90) [1, 5] | D(0.50) [2] | D(0.90) [2] | D(100) [2] | Compound
4.78 μm | 239.9 μm | 66.97 μm | 0.15 μm | 5.01 μm | 1.98 μm | 3.34 μm | 11.48 μm | 5.95 μm |  |  |  | CO/N=C(\C(=O)N[C@@H]1C(=O)N2C(C(=O)[O-])=C(C[n+]3cccc4c3CCCC4)CS[C@H]12)c1csc(N)n1 [Example 8, Cefquinome sulfate]
 |  |  |  |  |  |  |  |  | 63.01 μm | 114.75 μm | 178.25 μm | CO/N=C(\C(=O)N[C@@H]1C(=O)N2C(C(=O)[O-])=C(C[n+]3cccc4c3CCCC4)CS[C@H]12)c1csc(N)n1 [prior art non micronized material, cefquinome sulphate]
